Experimental data reported in patent US11945768B1, “8-(3-flurobenzylideneamino)naphthalene-1,3-disulfonic acid as an antioxidant compound” (KING FAISAL UNIVERSITY, priority 2023, dated 2024).

Test: DPPH radical scavenging antioxidant test (in vitro)
Format: biochemical
Details: 517 nm; for Inhibition (radical scavenging inhibition): 0.2 mL DPPH (0.75 mM), compound 3 μM in ethanol, 30 minutes incubation in the dark
Protocol: The antioxidant properties of the 8-(3-flurobenzylideneamino)naphthalene-1,3-disulfonic acid compound were studied by adding 0.2 mL DPPH (0.75 mM)) 8-(3-flurobenzylideneamino)naphthalene-1,3-disulfonic acid (III) (3 μM) in ethanol. After 30 minutes of incubation in the dark, the absorbance was read against a blank at 517 nm. Ascorbic acid (vitamin C) was used as standard antioxidants (positive control). A blank sample was prepared by 0.2 ml of DPPH in 3 mL ethanol. A negative control sample was run using ethanol instead of the sample. The radical scavenging inhibition was calculated using the following equation: […]
The antioxidant activity for the synthesized compound is listed in Table 1, using Vitamin C as a reference.

Row | SMILES | Inhibition (radical scavenging inhibition) [%] | antioxidant potential in DPPH test compared to vitamin C (in words) (DPPH in vitro test, vitamin C as positive control)
1 | O=S(=O)(O)c1cc(S(=O)(=O)O)c2c(/N=C/c3cccc(F)c3)cccc2c1 [Product III, 8-(3-flurobenzylideneamino)naphthalene-1,3-disulfonic acid] | 52 | high potential as an antioxidant compared to vitamin C
2 | O=C1O[C@H]([C@@H](O)CO)C(O)=C1O [vit c, Ascorbic acid, reference compound] | 74 | –
